From the OPERA property sets (Mansouri et al. 2018) come the findings set out here.

Each structure is given as a SMILES string.

As usually defined, the logP is a log measure of how a compound divides between an organic and an aqueous phase.

In the case of `Cc1cccc(CN(C)N=O)c1`, the logP was found to be 1.96.

Compound `CN(Cc1cccc(C(F)(F)F)c1)N=O` gave a logP of 1.99.

On to `CN(Cc1ccc(F)cc1)N=O`, for which the logP worked out at 1.67.

`CN(Cc1ccc([N+](=O)[O-])cc1)N=O`: the logP stood at 0.82.

For `CN(Cc1ccc(Cl)cc1)N=O`, the logP was found to be 2.19.

In turn, `CN(Cc1cccc([N+](=O)[O-])c1)N=O` registered a logP of 1.17.

For `COc1cccc(CN(C)N=O)c1`, the logP was determined as 1.6.

In turn, `CN(Cc1ccccc1)N=O` displayed a logP of 1.55.

`CN(Cc1cccc(Cl)c1)N=O`: the logP is 1.46.

The compound `Cc1ccc(CN(C)N=O)cc1` gave a logP of 2.14.
